Test results published in the supplement of paper PMC11451515.

System: NOMO1
Test: cell viability relative to DMSO control; higher = less cytotoxic
Settings: 48 h
Method in brief: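 Library compounds in DMSO were pin-dosed in an 11-point threefold series (47 μM to 0.79 nM) onto leukemia cells in 1536-well plates (5 μl). Plates held 500 cells/well of NOMO1 or SEM or 1000 cells/well of P12-Ichikawa, each adapted for at least four passages in each medium. Luminescence was read with CellTiter-Glo One after 48 h at 37°C. Viability means the per-plate percentage relative to DMSO wells, using cell-free wells as background.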

[1] = HPLM + 10% dialyzed FBS, 0.000781 µM
[2] = HPLM + 10% dialyzed FBS, 0.00234 µM
[3] = HPLM + 10% dialyzed FBS, 0.00702 µM
[4] = HPLM + 10% dialyzed FBS, 0.0211 µM
[5] = HPLM + 10% dialyzed FBS, 0.0632 µM
[6] = HPLM + 10% dialyzed FBS, 0.19 µM
[7] = HPLM + 10% dialyzed FBS, 0.569 µM
[8] = HPLM + 10% dialyzed FBS, 1.71 µM
[9] = HPLM + 10% dialyzed FBS, 5.12 µM
[10] = HPLM + 10% dialyzed FBS, 15.4 µM
[11] = HPLM + 10% dialyzed FBS, 46.1 µM
[12] = RPMI 5 mM glucose + 10% FBS, 0.000781 µM
[13] = RPMI 5 mM glucose + 10% FBS, 0.00234 µM
[14] = RPMI 5 mM glucose + 10% FBS, 0.00702 µM
[15] = RPMI 5 mM glucose + 10% FBS, 0.0211 µM
[16] = RPMI 5 mM glucose + 10% FBS, 0.0632 µM
[17] = RPMI 5 mM glucose + 10% FBS, 0.19 µM
[18] = RPMI 5 mM glucose + 10% FBS, 0.569 µM
[19] = RPMI 5 mM glucose + 10% FBS, 1.71 µM
[20] = RPMI 5 mM glucose + 10% FBS, 5.12 µM
[21] = RPMI 5 mM glucose + 10% FBS, 15.4 µM
[22] = RPMI 5 mM glucose + 10% FBS, 46.1 µM
[23] = RPMI 5 mM glucose + 10% dialyzed FBS, 0.000781 µM
[24] = RPMI 5 mM glucose + 10% dialyzed FBS, 0.00234 µM
[25] = RPMI 5 mM glucose + 10% dialyzed FBS, 0.00702 µM
[26] = RPMI 5 mM glucose + 10% dialyzed FBS, 0.0211 µM
[27] = RPMI 5 mM glucose + 10% dialyzed FBS, 0.0632 µM
[28] = RPMI 5 mM glucose + 10% dialyzed FBS, 0.19 µM
[29] = RPMI 5 mM glucose + 10% dialyzed FBS, 0.569 µM
[30] = RPMI 5 mM glucose + 10% dialyzed FBS, 1.71 µM
[31] = RPMI 5 mM glucose + 10% dialyzed FBS, 5.12 µM
[32] = RPMI 5 mM glucose + 10% dialyzed FBS, 15.4 µM
[33] = RPMI 5 mM glucose + 10% dialyzed FBS, 46.1 µM

Structure (SMILES)	cell viability [1] [%]	cell viability [2] [%]	cell viability [3] [%]	cell viability [4] [%]	cell viability [5] [%]	cell viability [6] [%]	cell viability [7] [%]	cell viability [8] [%]	cell viability [9] [%]	cell viability [10] [%]	cell viability [11] [%]	cell viability [12] [%]	cell viability [13] [%]	cell viability [14] [%]	cell viability [15] [%]	cell viability [16] [%]	cell viability [17] [%]	cell viability [18] [%]	cell viability [19] [%]	cell viability [20] [%]	cell viability [21] [%]	cell viability [22] [%]	cell viability [23] [%]	cell viability [24] [%]	cell viability [25] [%]	cell viability [26] [%]	cell viability [27] [%]	cell viability [28] [%]	cell viability [29] [%]	cell viability [30] [%]	cell viability [31] [%]	cell viability [32] [%]	cell viability [33] [%]
CN(C[C@@H]1COCCO1)[S+]([O-])(=O)NC2=CC3=C(C=C2)\C=C/C4=C(C=C(C=N4)C5=C[N](C)N=C5)C3=O	89.6	107	92.5	92.1	84.5	72.2	62.2	47.1	41.1	26.2	26.6	92.2	101	90.6	114	93.8	91.2	86.9	57.1	49.5	35.2	33.3	84.5	104	98.4	87.4	99.2	91.9	73.7	52.1	48.9	39.8	31.6
C[C@@H]1CC[C@@]2(CC[C@]3(C)\C(=C/C[C@@H]4[C@@]5(C)C[C@@H](O)[C@H](O)[C@@](C)(CO)[C@@H]5CC[C@@]34C)[C@@H]2[C@H]1C)C(O)=O	120	127	121	109	109	123	123	106	138	120	130	104	99.9	117	107	101	104	110	114	109	119	117	104	119	120	115	122	111	125	108	120	114	120
CC(C)[C@H]1C(=O)N[C@H](CO)Cc2c[nH]c3cccc(c23)N1C	104	98.3	106	111	125	128	112	75.8	50.6	47.2	45	96.2	103	112	104	111	119	99.7	77.7	67.9	51.1	46.7	81.7	94.4	93.2	93.2	97.5	120	100	69.5	71.1	56	47.4
CC1=CC/2=C(C=C1C)N(C[C@@H](O)[C@@H](O)[C@@H](O)CO)C/3=N/C(=O)NC(=O)C3=N2	130	119	119	115	124	135	139	125	89.1	127	46.2	108	108	116	118	116	117	110	120	108	111	98.5	113	126	113	123	126	123	128	123	108	107	90.1
NC[C@H](O)c1ccc(O)c(O)c1	115	117	119	104	120	104	90.7	85.7	97.7	86.9	72.4	96.7	86.8	112	95.7	105	91	87.3	91.2	99.2	97.5	78	93.2	90.3	99	91	88.1	85.4	86.6	93.4	83.3	88.6	87.7
C[C@]12CC[C@H]3[C@@H](CC[C@@]45O[C@@H]4C(O)=C(C#N)C[C@]35C)[C@@H]1CC[C@@H]2O	102	111	118	112	123	111	110	116	97.2	109	21.2	111	119	117	127	117	119	128	118	117	117	30.7	110	121	127	132	143	132	128	135	136	125	24.3
Cc1cc(/C=c2/sc3nc4ccccc4n3c2=O)c(C)n1-c1ccccc1	117	113	128	117	132	120	130	119	128	113	123	111	128	115	127	125	126	105	111	119	109	104	121	127	115	137	126	127	121	127	126	133	121
CCCC[S+](=N)([O-])CCC(N)C(=O)O (stereo not given)	120	122	138	138	157	131	150	142	148	89.2	28.7	–	–	–	–	–	–	–	–	–	–	–	–	–	–	–	–	–	–	–	–	–	–
COc1cc(N2CCN(C)CC2)ccc1Nc1nc(N)c(C(=O)c2c(Cl)cccc2Cl)s1	117	105	119	105	110	116	126	128	107	89	82.7	107	117	103	98.7	103	118	102	105	104	98.6	87.3	108	107	108	116	96.6	114	103	109	102	105	89.7
Clc1ccc(CCC(Cn2ccnc2)Sc2c(Cl)cccc2Cl)cc1 (stereo not given)	87.3	85.2	98	103	107	90.8	98.5	87	93.9	93.6	90.4	77.8	80.1	86.7	83.4	89.2	88.2	86.9	85.5	85.5	81.7	79.8	87.5	83.4	94.1	89.5	95.2	94.7	90.1	96.2	83.8	102	70.7
c1ccc2c(CN3CCNCC3)cccc2c1	99.6	113	124	106	112	121	113	112	104	99.7	93.7	103	124	115	117	117	126	115	133	110	99.9	51.6	108	113	106	117	115	122	129	122	116	91.7	64.9
COc1cccc(N(C)C(=S)Oc2ccc3c(c2)CCCC3)n1	93.3	95.6	118	89.1	111	102	101	110	108	102	99.6	85.4	88.1	87	82.2	103	90.8	91	88.1	103	92.2	105	82.3	98.9	94	84	99.5	97.7	103	94.2	105	108	101
N#Cc1cc(NC(=O)Nc2nnc(-c3ccncc3)s2)ccc1-c1cn[nH]c1	117	118	115	110	116	114	113	130	121	123	106	108	100	114	124	114	115	99.6	114	105	127	101	–	–	–	–	–	–	–	–	–	–	–
CCC[C@H](Nc1nc(-c2ccc(NC(=O)NCC)c(OC)c2)ncc1C)c1cccnc1	119	109	115	126	47.8	41.7	44.2	48.7	45.8	48.4	39.7	114	112	129	115	50	31.5	33.8	26.4	27.8	30.9	25.7	105	120	122	125	34.6	35.3	39.2	31.2	23.9	31.1	28.7
CC(C)[C@H](O)C(=O)N[C@@H](C)C(=O)N[C@@H]1C(=O)N(C)CCc2ccccc21	93.5	132	111	113	113	125	109	101	101	92.6	76.7	98.7	119	117	114	117	98.5	125	105	108	110	92.5	112	109	123	112	110	114	108	108	112	103	97.2
CC(C)(Sc1cc(C(C)(C)C)c(O)c(C(C)(C)C)c1)Sc1cc(C(C)(C)C)c(O)c(C(C)(C)C)c1	88.5	92.3	85.6	105	108	90.4	96.2	94.3	79.1	103	91.6	84.4	92.5	86.2	91.3	86.4	98.4	92.8	84.8	92.7	93	84.8	79.7	88.3	94.6	83.7	98.9	105	95.5	94.5	81.4	90.2	94
